Test system: Apple leaf cuticles
Test: Apple cuticle penetration test (SOFU, simulation of foliar uptake)
Format: in vitro ADME
Conditions: Spray volume 650 l/ha; no additives
Description: The cuticle penetration test is a further developed and adapted version of the test method SOFU (simulation of foliar uptake) originally described by Schonherr and Baur (Schonherr, J., Baur, P. (1996), Effects of temperature, surfactants and other adjuvants on rates of uptake of organic compounds. In: The plant cuticle—an integrated functional approach, 134-155. Kerstiens, G. (ed.), BIOS Scientific publisher, Oxford); it is well suited for systematic and mechanistic studies on the effects of formulations, adjuvants and solvents on the penetration of agrochemicals.
Apple leaf cuticles were isolated from leaves taken from trees growing in an orchard as described by Schönherr and Riederer (Schönherr, J., Riederer, M. (1986), Plant cuticles sorb lipophilic compounds during enzymatic isolation. Plant Cell Environ. 9, 459-466). Only the astomatous cuticular membranes of the upper leaf surface lacking stomatal pores were obtained. Discs having diameters of 18 mm were punched out of the leaves and infiltrated with an enzymatic solution of pectinase and cellulase. […] After storage for about four weeks the permeability of the cuticles reaches a constant level and the cuticular membranes are ready for the use in the penetration test. […]
An autosampler took aliquots of the acceptor in regular intervals and the content of active ingredient is determined by HPLC (DAD or MS). […]

| Compound | Penetration rate of spirotetramate After 48 hours | Penetration rate of tebuconazole After 24 hours |
| --- | --- | --- |
| CCOC(=O)OC1=C(c2cc(C)ccc2C)C(=O)N[C@]12CC[C@@H](OC)CC2 [spirotetramate] | 0% | – |
| CC(C)(C)C(O)(CCc1ccc(Cl)cc1)Cn1cncn1 (centres unmarked) [tebuconazole] | – | 4% |

— patent US20240000074A1, “LOW DRIFT, RAINFASTNESS, HIGH SPREADING, HIGH UPTAKE AND ULV TANK MIX ADJUVANT FORMULATION” (BAYER AKTIENGESELLSCHAFT, priority 2020, published 2024)
